Source: patent US9387220B2, “Method for inducing hepatocyte proliferation and uses thereof” (CAN-FITE BIOPHARMA LTD., priority 2007, dated 2016)
pIC50, pKi: −log10 of the molar value. Read-outs that look alike come from different tables or passages of the source.

Legend:
A2B adenosine receptor = target: T1, A2B adenosine receptor (Homo sapiens, UniProt P29275); experiment: Binding affinity to adenosine A2B receptor
T1 sequence (P29275 1-332): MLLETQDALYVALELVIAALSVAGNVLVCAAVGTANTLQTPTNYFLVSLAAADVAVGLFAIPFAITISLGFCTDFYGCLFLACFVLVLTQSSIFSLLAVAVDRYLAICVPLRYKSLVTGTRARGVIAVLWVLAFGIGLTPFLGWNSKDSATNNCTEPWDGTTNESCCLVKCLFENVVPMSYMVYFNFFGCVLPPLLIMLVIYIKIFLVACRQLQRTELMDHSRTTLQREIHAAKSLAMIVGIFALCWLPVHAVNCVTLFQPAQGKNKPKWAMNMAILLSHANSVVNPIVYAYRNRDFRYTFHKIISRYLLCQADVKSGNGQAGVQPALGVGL

[1] = oral administration; cited from earlier work
[2] = mice; cited from earlier work
[3] = Human studies with orally-administered Cl-IB-MECA, plasma half life; type: in vivo; conditions: oral administration, read-out: half life in human plasma from peak concentration
Description: An effective amount of an active agent may also be determined based on human PK studies. […] On the basis of said human trials twice daily administration appears to be a preferred administration regiment. […] On the basis of this human data, the administration regiment in human subjects may preferably be once or twice daily although other regiments cannot be excluded.

hepatocytes [4] = experiment: Hepatocyte proliferation of regenerated liver after partial hepatectomy; type: in vivo, rat; conditions: rats, 70% hepatectomy, 100 μg/kg orally TID; control group 30%; FIG. 1
liver [5] = experiment: Serum levels of liver enzymes ALT and AST after partial hepatectomy with ischemia/reperfusion; type: in vivo, rat
hepatocytes [6] = experiment: PCNA staining of hepatocytes after partial hepatectomy; type: in vivo, rat; conditions: rats, 48 hours after partial hepatectomy; FIG. 5B
liver [7] = experiment: Liver regeneration (liver weight) after partial hepatectomy; type: in vivo, rat; conditions: rats, 24 and 48 hours after partial hepatectomy; FIG. 6
Experimental: Male Wistar rats (275-300 g) were fasted 12 h before the procedure. The rats were anaesthetized with Ketamin (45 mg/kg) and Xylazine (5 mg/kg). Laparatomy was performed via a sub costal, bilateral incision. The main portal pedicle to the total liver was clamped for a period of 10 minutes, during which, a 70% hepatectomy was performed. After 10 minutes of ischemia (in the course of the hepatectomy), blood flow was restored by de-clamping.
Rats underwent laparatomy and the main portal pedicle to the total liver was clamped for a period of 10 minutes, during which a 70% hepatectomy was performed. After 10 minutes of ischemia blood flow was restored by de-clamping.
Livers were collected 24 and 48 hours after the partial […]. The growth of residual liver lobes was assessed using the following equation: […]
A is the estimated total liver weight before hepatectomy (3.4% of a rat's total weight),
B is the weight of liver resected during the hepatectomy, and
C is the weight of the regenerated liver at the end of the study.

| SMILES | pIC50 (A2B adenosine receptor; read-out: IC50) | pKi (A2B adenosine receptor; read-out: Ki) | half life in human plasma from peak concentration [1] | half life [2] | IC50 (A2B adenosine receptor) | Ki (A2B adenosine receptor) | half-life [3] | level of regeneration (hepatocyte proliferation) (hepatocytes [4]) | ALT serum level vs control group (liver [5]; rats, 2, 4 and 48 hours after partial hepatectomy, 100 μg/kg orally TID, FIG. 2A) | AST serum level vs control group (liver [5]; rats, 2, 4 and 48 hours after partial hepatectomy, 100 μg/kg orally TID, FIG. 2B) | serum levels of liver enzymes (AST and ALT) vs vehicle and untreated rats (liver [5]; rats, partial hepatectomy, further assay, FIG. 3) | number of PCNA positive hepatocytes vs vehicle (hepatocytes [6]) | liver weight (% of regeneration) vs vehicle (liver [7]) |
| --- | --- | --- | --- | --- | --- | --- | --- | --- | --- | --- | --- | --- | --- |
| CNC(=O)[C@H]1O[C@@H](n2cnc3c(NCc4cccc(I)c4)ncnc32)[C@H](O)[C@@H]1O [IB-MECA, 1-deoxy-1-{6-[({3-iodophenyl}methyl)amino]-9H-purine-9-yl}-N-methyl-β-D-ribofuranuronamide] | 4.32 | 4.37 | 8 to 10 h | 1.5 h |  |  |  |  |  |  |  |  |  |
| CNC(=O)[C@H]1O[C@@H](n2cnc3c(NCc4cccc(I)c4)nc(Cl)nc32)[C@H](O)[C@@H]1O [Cl-IB-MECA, 2-chloro-N^6-(3-iodobenzyl)-adenosine-5′-N-methyl-uronamide] |  |  |  |  | No activity | No activity | 12 to 14 h | 45.1% | significantly decreased | significantly decreased | reduction | significantly increased | increase |
